From patent US8357774B2, “Polypeptide and process for producing the same” (National University Corporation Nara Institute of Science …, priority 2007, dated 2013)

Test system: NIH3T3 cell
Test: NIH3T3 cell adhesion on film
Type: cell-based
Details: seeded 10^4 cells/cm^2 in D-MEM, 5% CO2, 37° C., 1 hour, washed three times with PBS, counted at five positions
Protocol: A NIH3T3 cell suspended in D-MEM was added onto the resulting Gly-Arg-Gly-Asp-Ser-conjugated poly(Pro-Hyp-Gly) film at a ratio of 10^4 cells/cm^2, followed by allowing to stand in 5% CO2 at 37° C. for 1 hour. The non-adhered cell was washed out three times with PBS and the number of adhered cells was counted at five positions on the film.

Row | Substance | number of adhered cells (average)
1 | bovine collagen type I: Bovine collagen type I coated on a plastic dish, comparison surface | 6,000 cells/cm^2
2 | poly(Pro-Hyp-Gly) | 2,000 cells/cm^2
